In US8530489B2 (Vertex Pharmaceuticals Incorporated, priority 2006, dated 2013):

Target: PLK1 (Homo sapiens, UniProt P53350)
Assay: PLK1 Inhibition Assay I (radioactive-phosphate incorporation)
Type: biochemical
Conditions: Ki(app); PLK1 Inhibition Assay I or II (table does not say which)
Procedure: The compounds of the present invention are evaluated as inhibitors of human PLK kinase using the following assays.
Compounds were screened for their ability to inhibit PLK1 using a radioactive-phosphate incorporation assay. Assays were carried out in a mixture of 25 mM HEPES (pH 7.5), 10 mM MgCl2, and 1 mM DTT. Final substrate concentrations were 350 μM [γ-33P]ATP (136 mCi 33P ATP/mmol ATP, Amersham Pharmacia Biotech/Sigma Chemicals) and 450 μM peptide (KKKISDELMDATFADQEAK) [SEQ. ID:1]. Assays were carried out at 25° C. in the presence of 2 nM PLK1. An assay stock buffer solution was prepared containing all of the reagents listed above, with the exception of ATP and the test compound of interest. 30 μL of the stock solution was placed in a 96 well plate followed by addition of 2 μL of DMSO stock containing serial dilutions of the test compound (typically starting from a final concentration of 10 μM with 2-fold serial dilutions) in duplicate (final DMSO concentration 5%). The plate was pre-incubated for 10 minutes at 25° C. and the reaction initiated by addition of 8 μL [γ-33P]ATP (final concentration 350 μM).
The reaction was stopped after 240 minutes by the addition of 100 μL 0.14M phosphoric acid. A multiscreen phosphocellulose filter 96-well plate (Millipore, Cat No. MAPHN0B50) was pretreated with 100 μL 0.1 M phosphoric acid prior to the addition of 125 μL of the stopped assay mixture. The plate was washed with 4×200 μL 0.1 M phosphoric acid. After drying, 100 μL Optiphase ‘SuperMix’ liquid scintillation cocktail (Perkin Elmer) was added to the well prior to scintillation counting (1450 Microbeta Liquid Scintillation Counter, Wallac).
After removing mean background values for all of the data points, Ki(app) data were calculated from non-linear regression analysis of the initial rate data using the Prism software package (GraphPad Prism version 3.0cx for Macintosh, GraphPad Software, San Diego Calif., USA).

Sequence of PLK1 (P53350 whole entry): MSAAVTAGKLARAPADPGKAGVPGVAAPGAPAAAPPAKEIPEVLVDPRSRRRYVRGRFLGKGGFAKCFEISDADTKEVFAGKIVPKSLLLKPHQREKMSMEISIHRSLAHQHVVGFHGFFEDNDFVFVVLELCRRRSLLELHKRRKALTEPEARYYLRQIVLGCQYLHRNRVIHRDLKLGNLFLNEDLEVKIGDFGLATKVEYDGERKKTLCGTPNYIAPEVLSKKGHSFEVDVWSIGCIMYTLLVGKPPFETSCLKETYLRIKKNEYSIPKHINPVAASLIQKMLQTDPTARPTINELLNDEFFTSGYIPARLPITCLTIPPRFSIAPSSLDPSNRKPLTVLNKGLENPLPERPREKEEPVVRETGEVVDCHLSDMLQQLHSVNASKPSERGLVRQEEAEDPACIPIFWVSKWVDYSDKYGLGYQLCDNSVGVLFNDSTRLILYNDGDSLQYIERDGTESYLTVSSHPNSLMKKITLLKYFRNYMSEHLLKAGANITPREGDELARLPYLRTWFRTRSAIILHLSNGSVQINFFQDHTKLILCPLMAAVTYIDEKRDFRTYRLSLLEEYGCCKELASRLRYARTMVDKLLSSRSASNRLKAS

## Cc1ccc(C)c(CNc2ncc(C#N)c(-c3c[nH]c4ncc(C(F)(F)F)cc34)n2)c1 [Compound I-60, 2-(2,5-dimethylbenzylamino)-4-(5-(trifluoromethyl)-1H-pyrrolo[2,3-b]pyridin-3-yl)pyrimidine-5-carbonitrile]
  Ki: 3 to 40 nM

## C[C@@H](Nc1ncc(C#N)c(-c2c[nH]c3ncc(C(F)(F)F)cc23)n1)C1CCCCC1 [Compound I-61, 2-((R)-1-cyclohexylethylamino)-4-(5-(trifluoromethyl)-1H-pyrrolo[2,3-b]pyridin-3-yl)pyrimidine-5-carbonitrile]
  Ki: < 3 nM

## N#Cc1cnc(NCc2ccc3c(c2)CCO3)nc1-c1c[nH]c2ncc(C(F)(F)F)cc12 [Compound I-62, 2-((2,3-dihydrobenzofuran-5-yl)methylamino)-4-(5-(trifluoromethyl)-1H-pyrrolo[2,3-b]pyridin-3-yl)pyrimidine-5-carbonitrile]
  Ki: 3 to 40 nM

## CN1CCC(Nc2ncc(C#N)c(-c3c[nH]c4ncc(C(F)(F)F)cc34)n2)CC1 [Compound I-63, 2-(1-methylpiperidin-4-ylamino)-4-(5-(trifluoromethyl)-1H-pyrrolo[2,3-b]pyridin-3-yl)pyrimidine-5-carbonitrile]
  Ki: 3 to 40 nM

## N#Cc1cnc(NCc2ccccn2)nc1-c1c[nH]c2ncc(C(F)(F)F)cc12 [Compound I-64, 2-(pyridin-2-ylmethylamino)-4-(5-(trifluoromethyl)-1H-pyrrolo[2,3-b]pyridin-3-yl)pyrimidine-5-carbonitrile]
  Ki: > 40 nM

## N#Cc1cnc(N[C@@H]2CC3CC[C@@H]2C3)nc1-c1c[nH]c2ncc(C(F)(F)F)cc12 [Compound I-65, 2-((1R,2R)-bicyclo[2.2.1]heptan-2-ylamino)-4-(5-(trifluoromethyl)-1H-pyrrolo[2,3-b]pyridin-3-yl)pyrimidine-5-carbonitrile]
  Ki: 3 to 40 nM

## CCNc1ncc(C#N)c(-c2c[nH]c3ncc(C(F)(F)F)cc23)n1 [Compound I-66, 2-(ethylamino)-4-(5-(trifluoromethyl)-1H-pyrrolo[2,3-b]pyridin-3-yl)pyrimidine-5-carbonitrile]
  Ki: > 40 nM

## N#Cc1cnc(NCCC2CCCCN2)nc1-c1c[nH]c2ncc(C(F)(F)F)cc12 (stereo not drawn) [Compound I-68, 2-(2-(piperidin-2-yl)ethylamino)-4-(5-(trifluoromethyl)-1H-pyrrolo[2,3-b]pyridin-3-yl)pyrimidine-5-carbonitrile]
  Ki: > 40 nM

## N#Cc1cnc(NCCN2CCOCC2)nc1-c1c[nH]c2ncc(C(F)(F)F)cc12 [Compound I-69, 2-(2-morpholinoethylamino)-4-(5-(trifluoromethyl)-1H-pyrrolo[2,3-b]pyridin-3-yl)pyrimidine-5-carbonitrile]
  Ki: > 40 nM

## N#Cc1cnc(NCCCN2CCOCC2)nc1-c1c[nH]c2ncc(C(F)(F)F)cc12 [Compound I-70, 2-(3-morpholinopropylamino)-4-(5-(trifluoromethyl)-1H-pyrrolo[2,3-b]pyridin-3-yl)pyrimidine-5-carbonitrile]
  Ki: > 40 nM

## N#CCNc1ncc(C#N)c(-c2c[nH]c3ncc(C(F)(F)F)cc23)n1 [Compound I-71, 2-(cyanomethylamino)-4-(5-(trifluoromethyl)-1H-pyrrolo[2,3-b]pyridin-3-yl)pyrimidine-5-carbonitrile]
  Ki: > 40 nM

## CC(=O)Nc1ccc(CNc2ncc(C#N)c(-c3c[nH]c4ncc(C(F)(F)F)cc34)n2)cc1 [Compound I-72, N-(4-((5-cyano-4-(5-(trifluoromethyl)-1H-pyrrolo[2,3-b]pyridin-3-yl)pyrimidin-2-ylamino)methyl)phenyl)acetamide]
  Ki: 3 to 40 nM

## N#Cc1cnc(NC2CCCC2)nc1-c1c[nH]c2ncc(C(F)(F)F)cc12 [Compound I-73, 2-(cyclopentylamino)-4-(5-(trifluoromethyl)-1H-pyrrolo[2,3-b]pyridin-3-yl)pyrimidine-5-carbonitrile]
  Ki: 3 to 40 nM

## N#Cc1cnc(NC2CCOCC2)nc1-c1c[nH]c2ncc(C(F)(F)F)cc12 [Compound I-74, 2-(tetrahydro-2H-pyran-4-ylamino)-4-(5-(trifluoromethyl)-1H-pyrrolo[2,3-b]pyridin-3-yl)pyrimidine-5-carbonitrile]
  Ki: 3 to 40 nM

## N#Cc1cnc(NC(CO)c2ccccc2)nc1-c1c[nH]c2ncc(C(F)(F)F)cc12 (stereo not drawn) [Compound I-75, 2-(2-hydroxy-1-phenylethylamino)-4-(5-(trifluoromethyl)-1H-pyrrolo[2,3-b]pyridin-3-yl)pyrimidine-5-carbonitrile]
  Ki: 3 to 40 nM

## N#Cc1cnc(NC2CC2)nc1-c1c[nH]c2ncc(C(F)(F)F)cc12 [Compound I-76, 2-(cyclopropylamino)-4-(5-(trifluoromethyl)-1H-pyrrolo[2,3-b]pyridin-3-yl)pyrimidine-5-carbonitrile]
  Ki: > 40 nM

## CC[C@H](C)Nc1ncc(C#N)c(-c2c[nH]c3ncc(C(F)(F)F)cc23)n1 [Compound I-77, 2-(sec-butylamino)-4-(5-(trifluoromethyl)-1H-pyrrolo[2,3-b]pyridin-3-yl)pyrimidine-5-carbonitrile]
  Ki: 3 to 40 nM

## N#Cc1cnc(N[C@H]2CCOC2)nc1-c1c[nH]c2ncc(C(F)(F)F)cc12 [Compound I-78, 2-((S)-tetrahydrofuran-3-ylamino)-4-(5-(trifluoromethyl)-1H-pyrrolo[2,3-b]pyridin-3-yl)pyrimidine-5-carbonitrile]
  Ki: 3 to 40 nM

## C#CCNc1ncc(C#N)c(-c2c[nH]c3ncc(C(F)(F)F)cc23)n1 [Compound I-79, 2-(prop-2-ynylamino)-4-(5-(trifluoromethyl)-1H-pyrrolo[2,3-b]pyridin-3-yl)pyrimidine-5-carbonitrile]
  Ki: > 40 nM

## N#Cc1cnc(NCCCn2ccnc2)nc1-c1c[nH]c2ncc(C(F)(F)F)cc12 [Compound I-80, 2-(3-(1H-imidazol-1-yl)propylamino)-4-(5-(trifluoromethyl)-1H-pyrrolo[2,3-b]pyridin-3-yl)pyrimidine-5-carbonitrile]
  Ki: > 40 nM

## N#Cc1cnc(NC[C@H]2CC[C@@H](O)C2)nc1-c1c[nH]c2ncc(C(F)(F)F)cc12 [Compound I-81, 2-(((1S,3R)-3-hydroxycyclopentyl)methylamino)-4-(5-(trifluoromethyl)-1H-pyrrolo[2,3-b]pyridin-3-yl)pyrimidine-5-carbonitrile]
  Ki: 3 to 40 nM

## COCC(C)Nc1ncc(C#N)c(-c2c[nH]c3ncc(C(F)(F)F)cc23)n1 (stereo not drawn) [Compound I-82, 2-(1-methoxypropan-2-ylamino)-4-(5-(trifluoromethyl)-1H-pyrrolo[2,3-b]pyridin-3-yl)pyrimidine-5-carbonitrile]
  Ki: 3 to 40 nM

## CC[C@@H](C)Nc1ncc(C#N)c(-c2c[nH]c3ncc(C(F)(F)F)cc23)n1 [Compound I-83, 2-(sec-butylamino)-4-(5-(trifluoromethyl)-1H-pyrrolo[2,3-b]pyridin-3-yl)pyrimidine-5-carbonitrile]
  Ki: < 3 nM

## COc1ccc(C(C)Nc2ncc(C#N)c(-c3c[nH]c4ncc(C(F)(F)F)cc34)n2)cc1Cl (stereo not drawn) [Compound I-84, 2-(1-(3-chloro-4-methoxyphenyl)ethylamino)-4-(5-(trifluoromethyl)-1H-pyrrolo[2,3-b]pyridin-3-yl)pyrimidine-5-carbonitrile]
  Ki: < 3 nM

## N#Cc1cnc(NCCC2CCCN2)nc1-c1c[nH]c2ncc(C(F)(F)F)cc12 (stereo not drawn) [Compound I-85, 2-(2-(pyrrolidin-2-yl)ethylamino)-4-(5-(trifluoromethyl)-1H-pyrrolo[2,3-b]pyridin-3-yl)pyrimidine-5-carbonitrile]
  Ki: > 40 nM

## N#Cc1cnc(NCCN2CCSCC2)nc1-c1c[nH]c2ncc(C(F)(F)F)cc12 [Compound I-86, 2-(2-thiomorpholinoethylamino)-4-(5-(trifluoromethyl)-1H-pyrrolo[2,3-b]pyridin-3-yl)pyrimidine-5-carbonitrile]
  Ki: > 40 nM

## N#Cc1cnc(N2CCC[C@@H]2CN)nc1-c1c[nH]c2ncc(C(F)(F)F)cc12 [Compound I-87, 2-((R)-2-(aminomethyl)pyrrolidin-1-yl)-4-(5-(trifluoromethyl)-1H-pyrrolo[2,3-b]pyridin-3-yl)pyrimidine-5-carbonitrile]
  Ki: > 40 nM

## N#Cc1cnc(NC[C@H]2CCCN2)nc1-c1c[nH]c2ncc(C(F)(F)F)cc12 [Compound I-88, 2-((R)-pyrrolidin-2-ylmethylamino)-4-(5-(trifluoromethyl)-1H-pyrrolo[2,3-b]pyridin-3-yl)pyrimidine-5-carbonitrile]
  Ki: > 40 nM

## N#Cc1cnc(NCC2CCN(Cc3ccccc3)CC2)nc1-c1c[nH]c2ncc(C(F)(F)F)cc12 [Compound I-89, 2-((1-benzylpiperidin-4-yl)methylamino)-4-(5-(trifluoromethyl)-1H-pyrrolo[2,3-b]pyridin-3-yl)pyrimidine-5-carbonitrile]
  Ki: > 40 nM

## N#Cc1cnc(NCc2ccc(O)cc2)nc1-c1c[nH]c2ncc(C(F)(F)F)cc12 [Compound I-90, 4-(5-(1,1-Trifluoromethyl)-1H-pyrrolo[2,3-b]pyridin-3-yl)-2-(4-hydroxybenzylamino)pyrimidine-5-carbonitrile]
  Ki: 3 to 40 nM
